According to article PMC5725665, “Discovery of a Highly Selective Cell‐Active Inhibitor of the Histone Lysine Demethylases KDM2/7” (Angewandte Chemie (International Ed. in English), 2017):

Assays:
Assay in all cases: biochemical
JARID1A (KDM5A) = JARID1A (KDM5A) (Homo sapiens, UniProt P29375); set-up: AlphaScreen histone demethylase activity assay
Description: (§1) A base‐mediated 5‐endo‐trig cyclization of a C‐2‐substituted aromatic imine afforded the racemic indoline core with two adjacent stereocenters. Subsequent acylation of the indoline ring system conferred stability towards oxidation and provided a handle for modulating polarity. Finally, metal‐catalysed cross‐coupling of the aryl bromide provided access to a variety of linkers between the indoline core and pyrrolidine capping group. In total, 45 racemic compounds were synthesized, and IC50 values for inhibition of KDM2A were determined using two orthogonal enzyme activity assays: AlphaScreen25 and RapidFire MS26 (see Section S3.1 in the Supporting Information for complete inhibition data). Key structure–activity relationships are summarized below (Scheme 1 B, compounds 2–12). […] In immunofluorescence assays using HeLa cells ectopically expressing catalytically active KDM2A, a dose‐dependent increase in H3K36me2 staining was observed upon incubation with (S,S)‐6, reflecting augmented cellular H3K36me2 levels (Figure 2 A and Section S3.3). […] To profile its selectivity, (S,S)‐6 was tested for inhibitory activity against a panel of KDMs, methyllysine binding motifs, and epigenetic enzymes.

JMJD2A (KDM4A) [1] = molecular target: T1, JMJD2A (KDM4A) (Homo sapiens, UniProt O75164); set-up: AlphaScreen histone demethylase activity assay; details: read-out: KDM4A % Inhib. (18.75 uM)
T1 sequence (O75164 1-1064): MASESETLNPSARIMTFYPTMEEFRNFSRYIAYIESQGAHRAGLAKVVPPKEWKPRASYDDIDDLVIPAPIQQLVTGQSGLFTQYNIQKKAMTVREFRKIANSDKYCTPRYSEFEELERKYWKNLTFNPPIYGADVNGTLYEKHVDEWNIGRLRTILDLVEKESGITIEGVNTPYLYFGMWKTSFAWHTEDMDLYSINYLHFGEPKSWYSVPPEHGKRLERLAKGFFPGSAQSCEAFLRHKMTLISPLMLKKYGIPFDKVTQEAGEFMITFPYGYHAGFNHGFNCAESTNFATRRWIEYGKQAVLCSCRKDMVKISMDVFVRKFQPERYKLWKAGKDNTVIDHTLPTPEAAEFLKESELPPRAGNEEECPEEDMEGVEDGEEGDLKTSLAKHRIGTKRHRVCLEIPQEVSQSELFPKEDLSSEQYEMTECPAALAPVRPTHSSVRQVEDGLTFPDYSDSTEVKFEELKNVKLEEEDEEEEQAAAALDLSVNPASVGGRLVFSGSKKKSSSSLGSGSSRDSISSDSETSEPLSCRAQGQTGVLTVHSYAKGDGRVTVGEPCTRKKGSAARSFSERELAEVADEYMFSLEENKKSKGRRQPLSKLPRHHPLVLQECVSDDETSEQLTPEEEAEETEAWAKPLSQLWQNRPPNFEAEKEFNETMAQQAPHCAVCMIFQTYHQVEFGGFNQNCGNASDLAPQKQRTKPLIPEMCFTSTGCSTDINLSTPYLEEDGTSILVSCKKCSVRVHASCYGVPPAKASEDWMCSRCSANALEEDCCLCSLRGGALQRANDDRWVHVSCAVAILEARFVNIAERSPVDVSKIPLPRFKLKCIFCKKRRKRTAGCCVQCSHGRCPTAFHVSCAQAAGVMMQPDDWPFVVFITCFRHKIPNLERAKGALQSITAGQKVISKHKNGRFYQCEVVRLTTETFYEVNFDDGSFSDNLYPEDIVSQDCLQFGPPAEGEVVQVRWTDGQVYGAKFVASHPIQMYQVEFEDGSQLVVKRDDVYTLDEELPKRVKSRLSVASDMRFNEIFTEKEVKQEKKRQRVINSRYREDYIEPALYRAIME

JMJD2A (KDM4A) [2] = molecular target: T1, JMJD2A (KDM4A); set-up: AlphaScreen histone demethylase activity assay; details: for KDM4A pIC50: inhibitor; for IC50: read-out: KDM4A pIC50 (converted)
Description: as §1

KDM2A = molecular target: T2, KDM2A (Homo sapiens, UniProt Q9Y2K7); set-up: RapidFire MS histone peptide demethylation assay; details: for KDM2A RapidFire pIC50: inhibitor
T2 construct: isolated enzyme
T2 sequence (Q9Y2K7 1-517 limits assumed): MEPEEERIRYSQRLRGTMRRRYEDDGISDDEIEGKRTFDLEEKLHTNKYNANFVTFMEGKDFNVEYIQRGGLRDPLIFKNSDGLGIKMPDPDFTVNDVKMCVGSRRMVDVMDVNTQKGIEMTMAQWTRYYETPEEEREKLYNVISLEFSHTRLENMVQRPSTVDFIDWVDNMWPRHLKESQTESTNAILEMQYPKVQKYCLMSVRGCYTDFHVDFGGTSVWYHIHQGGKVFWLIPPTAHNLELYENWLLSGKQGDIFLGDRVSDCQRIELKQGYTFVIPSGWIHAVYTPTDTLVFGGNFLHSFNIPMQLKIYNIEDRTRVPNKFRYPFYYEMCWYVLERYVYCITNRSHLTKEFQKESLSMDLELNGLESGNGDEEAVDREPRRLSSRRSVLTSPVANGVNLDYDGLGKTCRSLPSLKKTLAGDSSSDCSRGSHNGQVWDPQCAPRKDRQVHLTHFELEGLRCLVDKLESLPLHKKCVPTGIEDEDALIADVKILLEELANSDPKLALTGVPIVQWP
Protocol: [formula] Scheme 1 A) General synthetic strategy for racemic synthesis of KDM2A inhibitors. Reagents and conditions: i) Zn powder (10 equiv), NH4Cl (15 equiv), 5:1 acetone/H2O or H2, Pd/C (10 % w/w), EtOAc; ii) ArCHO (1.3 equiv), MgSO4 (5 equiv), PhMe or ArCHO (1.3 equiv), pyrrolidine (0.1 equiv), 3 Å sieves, CH2Cl2; iii) KO^tBu (1.1 equiv), PhMe, 0 °C; iv) R^3COCl (2–5 equiv), pyridine (2–5 equiv), CH2Cl2; v) metal‐catalysed cross‐coupling. B) Key structure–activity relationships. IC50 values were determined by RapidFire MS and confirmed by AlphaScreen. All compounds are racemic. C) Catalytic enantioselective synthesis. Reagents and conditions: i) CsOH⋅H2O (2.0 equiv), catalyst 14/16 (10 mol %), PhMe, −30 °C. Catalyst 14: 89 %, d.r. 10:1, e.r. 88:12; catalyst 16: 84 %, d.r. 7:1, e.r. 17:83; ii) CH3COCl (2.0 equiv), pyridine (2.0 equiv), CH2Cl2; iii) H2, Pd/C (10 % w/w), 88 % (2 steps); iv) K2CO3 (5 equiv), Br(CH2)7Br (4 equiv), acetone, reflux, 38 %; v) K2CO3 (5 equiv) pyrrolidine (4 equiv), CH3CN, 65 %; vi) PhN(SO2CF3)2 (1.1 equiv), DIPEA (2.0 equiv), CH2Cl2, 0 °C, 85 %; vii) 7‐pyrrolidine‐hept‐1‐yne (1.5 equiv), PdCl2(PPh3)2 (5 mol %), CuI (5 mol %), HN(^iPr)2, 75 °C, 79 %; viii) H2, Pd/C (10 % w/w), MeOH, 74 %. DIPEA=(^iPr)2NEt. A base‐mediated 5‐endo‐trig cyclization of a C‐2‐substituted aromatic imine afforded the racemic indoline core with two adjacent stereocenters. Subsequent acylation of the indoline ring system conferred stability towards oxidation and provided a handle for modulating polarity. Finally, metal‐catalysed cross‐coupling of the aryl bromide provided access to a variety of linkers between the indoline core and pyrrolidine capping group. In total, 45 racemic compounds were synthesized, and IC50 values for inhibition of KDM2A were determined using two orthogonal enzyme activity assays: AlphaScreen25 and RapidFire MS26 (see Section S3.1 in the Supporting Information for complete inhibition data). Key structure–activity relationships are summarized below (Scheme 1 B, compounds 2–12).

Sequence of JARID1A (KDM5A) (P29375 whole entry): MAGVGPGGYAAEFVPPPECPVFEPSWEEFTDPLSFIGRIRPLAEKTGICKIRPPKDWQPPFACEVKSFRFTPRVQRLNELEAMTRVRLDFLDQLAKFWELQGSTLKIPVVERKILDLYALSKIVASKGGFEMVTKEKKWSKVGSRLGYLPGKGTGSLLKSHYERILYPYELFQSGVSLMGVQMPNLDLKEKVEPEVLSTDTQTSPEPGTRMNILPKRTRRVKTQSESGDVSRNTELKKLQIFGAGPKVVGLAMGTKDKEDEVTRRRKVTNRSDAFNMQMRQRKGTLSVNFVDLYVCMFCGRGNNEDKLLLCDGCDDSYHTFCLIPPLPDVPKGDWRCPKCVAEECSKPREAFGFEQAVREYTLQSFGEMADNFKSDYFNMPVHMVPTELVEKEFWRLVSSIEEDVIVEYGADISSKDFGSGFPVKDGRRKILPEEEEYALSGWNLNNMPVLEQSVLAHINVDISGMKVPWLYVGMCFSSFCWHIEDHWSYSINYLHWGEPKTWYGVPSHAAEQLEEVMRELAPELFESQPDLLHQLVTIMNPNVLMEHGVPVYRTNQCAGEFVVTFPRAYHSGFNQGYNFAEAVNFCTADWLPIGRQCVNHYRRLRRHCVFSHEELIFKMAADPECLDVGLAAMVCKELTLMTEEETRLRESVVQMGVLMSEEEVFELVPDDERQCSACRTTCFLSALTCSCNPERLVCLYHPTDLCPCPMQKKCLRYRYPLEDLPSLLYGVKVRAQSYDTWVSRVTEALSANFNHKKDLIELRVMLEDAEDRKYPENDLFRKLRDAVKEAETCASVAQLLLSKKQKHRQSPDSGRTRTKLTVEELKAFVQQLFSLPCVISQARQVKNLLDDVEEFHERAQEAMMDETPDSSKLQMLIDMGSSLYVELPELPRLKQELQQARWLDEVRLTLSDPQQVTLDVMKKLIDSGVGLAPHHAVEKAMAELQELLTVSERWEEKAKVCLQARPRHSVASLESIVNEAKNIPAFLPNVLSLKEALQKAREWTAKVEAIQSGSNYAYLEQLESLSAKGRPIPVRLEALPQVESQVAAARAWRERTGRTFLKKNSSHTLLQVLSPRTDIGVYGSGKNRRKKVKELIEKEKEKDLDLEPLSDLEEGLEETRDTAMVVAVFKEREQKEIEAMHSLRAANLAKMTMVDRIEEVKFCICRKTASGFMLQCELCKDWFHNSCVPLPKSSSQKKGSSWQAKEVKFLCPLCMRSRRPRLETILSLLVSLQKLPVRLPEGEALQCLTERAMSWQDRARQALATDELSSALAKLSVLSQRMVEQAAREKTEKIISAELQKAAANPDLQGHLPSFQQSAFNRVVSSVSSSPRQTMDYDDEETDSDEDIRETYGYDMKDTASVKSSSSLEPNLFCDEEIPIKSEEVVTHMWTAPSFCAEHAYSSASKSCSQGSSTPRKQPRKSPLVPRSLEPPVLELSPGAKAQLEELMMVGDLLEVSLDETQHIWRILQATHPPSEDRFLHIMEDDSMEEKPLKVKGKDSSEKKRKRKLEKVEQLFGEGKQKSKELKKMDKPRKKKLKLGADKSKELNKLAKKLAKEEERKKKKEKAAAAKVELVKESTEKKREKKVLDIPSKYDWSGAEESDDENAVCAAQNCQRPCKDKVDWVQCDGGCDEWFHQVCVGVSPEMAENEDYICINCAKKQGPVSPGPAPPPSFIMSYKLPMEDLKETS

SMILES	inhibition at 50 µM (JARID1A (KDM5A)) [%]	inhibition at 18.75 µM (JMJD2A (KDM4A) [1]) [%]	also measured
CC(=O)N1c2ccccc2[C@](C#N)(c2ccccc2)[C@H]1c1cncc(OCCCCCCCN2CCCC2)c1 (racemic) [compound 3, 3]	24	-5.4	
CCOC(=O)C1(C#N)c2ccccc2N(C(C)=O)C1c1cncc(C=CCCCCCN2CCCC2)c1 (stereo not shown) [compound 124, 124]	20	-12.7	
CC(=O)N1c2ccccc2[C@@](C#N)(c2ccccc2)[C@H]1c1cccc(/C=C/CCCCCN2CCCC2)c1 (relative stereo) [compound 126, 126]		27.8	KDM4A pIC50 (JMJD2A (KDM4A) [2]): < 4.7; KDM2A RapidFire pIC50 (KDM2A): 5.983
CC(=O)N1c2ccccc2[C@](C#N)(c2ccccc2)[C@H]1c1cncc(C#CCCCCCN2CCCC2)c1 (racemic) [compound 4, 4]	39	10.2	
CC(=O)N1c2ccccc2[C@](C#N)(c2ccccc2)[C@H]1c1cncc(OCCOCCOCCN2CCCC2)c1 (racemic) [compound 148, (2RS,3RS)-1-Acetyl-3-phenyl-2-(5-(2-(2-(2-(pyrrolidin-1-yl)ethoxy)ethoxy)ethoxy)pyridin-3-yl)indoline-3-carbonitrile]		-5.9	IC50 (JMJD2A (KDM4A) [2]): > 20 µM
CC(=O)N1c2ccccc2C(C#N)(c2ccccc2)C1c1cncc(C#CCCCCCN2CCCC2)c1 (stereo not shown) [compound 130, 130]	30.9	-1.3	
CC(=O)N1c2ccccc2[C@@](C#N)(c2ccccc2)[C@H]1c1cncc(OCCCCCCCN2CCCC2)c1 (racemic) [compound 145, (2RS,3SR)-1-Acetyl-3-phenyl-2-(5-((7-(pyrrolidin-1-yl)heptyl)oxy)pyridin-3-yl)indoline-3-carbonitrile]	36.7	-9.59	IC50 (JARID1A (KDM5A); read-out: KDM5A pIC50 (converted)): > 50.1 µM; IC50 (JMJD2A (KDM4A) [2]): > 20 µM; IC50 (KDM2A; read-out: KDM2A RapidFire pIC50 (converted)): 1.01 µM

Continued, in another order:

inhibition at 50 µM (JARID1A (KDM5A)) [%]	inhibition at 18.75 µM (JMJD2A (KDM4A) [1]) [%]	SMILES	also measured
40	7.8	CC(=O)N1c2ccccc2[C@](C#N)(c2ccccc2)[C@H]1c1cncc(CCCCCCCN2CCCC2)c1 [(R,R)-6]	
47.5	8.5	CC(=O)N1c2ccccc2[C@](C#N)(c2ccccc2)[C@H]1c1ccc(CCCCCCCN2CCCC2)o1 (racemic) [compound 7, 7]	
25.5	-1.1	CC(=O)N1c2ccccc2[C@](C#N)(c2ccccc2)[C@H]1c1cncc(CCCCCCCN2CCCC2)c1 (racemic) [compound 6, 6]	
23	21.8	CC(=O)N1c2ccccc2C(C#N)(c2ccccc2)C1c1cc(CCCCCCCN2CCCC2)co1 (stereo not shown) [compound 8, 8]	
49.1	18.3	CC(=O)N1c2ccccc2[C@](C#N)(c2ccccc2)[C@H]1c1ccc(C#CCCCCCN2CCCC2)o1 (relative stereo) [compound 132, 132]	KDM5A pIC50 (JARID1A (KDM5A); inhibitor): < 4.3; KDM4A pIC50 (JMJD2A (KDM4A) [2]): < 4.7; KDM2A RapidFire pIC50 (KDM2A): 5.990
